Experimental data: patent US20250332112A1, “IONIZABLE CATIONIC LIPIDS FOR LIPID NANOPARTICLES” (GENEVANT SCIENCES GMBH, priority 2022, published 2025)

Key:
[1] = Lipid clearance from liver over time after human OTC mRNA LNP (LC-MS); format: in vivo; conditions: IV 0.5 mg/kg human OTC mRNA LNP, male C57BL/6 mice (n = 4)
Protocol: (§1) LNP formulations encapsulating ornithine transcarbamylase mRNA were injected intravenously at the specified dose levels to male C57BL/6 mice (6-8 weeks old).
(§2) Liver tissues were treated with PBS and homogenized with a FastPrep machine, 3 cycles of 5 m/s×15 s. Homogenates from the PBS-treated control animals was pooled and used for standard curve preparation. Samples were extracted into a deep well plate with 250 μL of an internal suitability standard. Plates were centrifuged for 15 min at 4° C. and 2000 rpm. Analysis was performed using an Agilent 6520 QTOF coupled to an Agilent 1290 UHPLC, using reverse-phase LC separation. Quantitation of the ionizable lipid was by MS/MS against a calibration curve spiked into appropriately matched blank matrix. Calibration used a similar class of synthetic lipid as internal standard.
At various timepoints post-dose, lipid levels were assessed in the liver. Some novel ionizable lipids reported more rapid clearance rates compared to the benchmark (Table 19).

[2] = Particle characteristics of LNPs containing luciferase mRNA and novel ionizable lipids; format: physicochemical; conditions: Table 6; luciferase mRNA LNP 1.6:54.6:32.8:10.9
Method in brief: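 LNPs made from PEG-lipid, ionizable lipid, cholesterol and phospholipid in ethanol, T-mixed with luciferase mRNA in 100 mM acetate pH 5. Products were dialysed, concentrated, and dialysed into 5 mM Tris, 10% sucrose, pH 8, then 0.2 μm filtered. mRNA was measured by RiboGreen, and size and polydispersity by dynamic light scattering on a Zetasizer.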

[3] = test system: luciferase activity in the liver; test: Luciferase activity in liver after intravenous luciferase mRNA LNP; format: in vivo; conditions: 0.5 mg/kg IV, 6 h post-IV administration, BALB/c mice (n = 4)
[4] = test system: human OTC expression in the liver; test: Dose response of human OTC mRNA LNP, OTC expression in liver (ELISA); format: in vivo; conditions: 24 h, male C57BL/6 mice (n = 4)
Protocol: as §1
Liver homogenates were prepared with PBS, Halt protease inhibitor cocktail and FastPrep homogenization, standardized to 2 mg/mL protein with a BCA Protein Assay, and then analyzed by ELISA. Briefly, samples were diluted with PBS and plated on Nunc Maxisorp plates. A standard curve using human […] protein was prepared from the naïve animal controls (vehicle). After 2 h incubation the plates were washed, and the primary antibody was added. After 1 h incubation, the secondary antibody was added and incubated for another hour. After washing, TMB Substrate was added for color development and the reaction was stopped with 2 N sulfuric acid. The plate was read at 450/570 OD.
At 24 h post-dose, the novel lipid formulations reported dose-dependent increases in human OTC expression in the liver (Table 15).

[5] = Parent ionizable lipid remaining in liver at 6 h after luciferase mRNA LNP (LC-MS); format: in vivo; conditions: 6 h after IV 0.5 mg/kg Luciferase mRNA LNP
[6] = Particle characteristics of LNPs containing EGFP mRNA and novel ionizable lipids; format: physicochemical; conditions: Table 21; EGFP mRNA LNP 1.6:54.6:32.8:10.9
Protocol: The lipid solution contains 4 components: a PEG-conjugated lipid, an ionizable lipid, cholesterol, and a phospholipid (e.g., DSPC). Lipid stocks were prepared using the lipid identities and molar ratios as described, to achieve a total concentration of ˜7 mg/mL in 100% ethanol. […] Equal volumes of the lipid and nucleic acid solutions were blended at a flow rate of 400 mL/min through a T-connector, and diluted with ˜4 volumes of PBS, pH 7.4. Formulations were placed in Slide-A-Lyzer dialysis units (MWCO 10,000) and dialyzed overnight against 10 mM Tris, 500 mM NaCl, pH 8 buffer. Following dialysis, the formulations were concentrated to ˜0.6 mg/mL using VivaSpin concentrator units (MWCO 100,000) and dialyzed overnight against 5 mM Tris, 10% sucrose, pH 8 buffer. Formulations were filtered through a 0.2 μm syringe filter (PES membrane). Nucleic acid concentration was determined by the RiboGreen assay. Particle size and polydispersity were determined using a Malvern Nano Series Zetasizer.
LNP formulations containing novel ionizable lipids all produced stable particles with high encapsulation efficiency (Tables 20-23).

[7] = Parent ionizable lipid remaining in liver at 24 h after EGFP mRNA LNP (LC-MS); format: in vivo; conditions: Table 29; 24 h after IV 0.5 mg/kg EGFP mRNA LNP, female BALB/c mice (n = 4)
Protocol: as §2
At 24 h post-dose, some treatment groups reported lower levels of novel ionizable lipid in mouse liver compared to the benchmark (Tables 28-31).

[8] = Lipid clearance from liver over time after EGFP mRNA LNP (LC-MS); format: in vivo; conditions: IV 0.5 mg/kg EGFP mRNA LNP, female BALB/c mice (n = 4)
Protocol: as §2
At various timepoints post-dose, lipid levels were assessed in the liver. Some novel ionizable lipids reported more rapid clearance rates compared to the benchmark (Table 33).

[9] = test system: EGFP expression in the liver; test: EGFP expression in liver after intravenous EGFP mRNA LNP (ELISA); conditions: Table 25; 0.5 mg/kg IV, 24 h post-IV administration, BALB/c mice (n = 4)
[10] = test system: EGFP expression in the liver; test: Dose response of EGFP mRNA LNP, EGFP expression in liver; format: in vivo; conditions: 24 h, female BALB/c mice (n = 4)
Protocol: At 24 h post-dose, the novel lipid formulations reported dose-dependent increases in EGFP expression in the liver (Table 32).

[11] = Table 18, female BALB/c mice (n = 4)

Row | Compound | Parent ionizable lipid remaining in liver, Average ([1]; 0.25 h post-dose) | Parent ionizable lipid remaining in liver, Average ([1]; 1 h post-dose) | Parent ionizable lipid remaining in liver, Average ([1]; 3 h post-dose) | Parent ionizable lipid remaining in liver, Average ([1]; 6 h post-dose) | Parent ionizable lipid remaining in liver, Average ([1]; 24 h post-dose) | Parent ionizable lipid remaining in liver, Average ([1]; 168 h post-dose) | Final Product % EE [2] | Final Product PDI [2] | Final Product Z-avg [2] | Luc Activity ([3]; Table 13) | Human OTC expression ([4]; 0.3 mg/kg IV) | Human OTC expression ([4]; 1 mg/kg IV) | Human OTC expression ([4]; 3 mg/kg IV) | Parent ionizable lipid remaining in liver, Average ([5]; Table 17, female mice (n = 4)) | Parent ionizable lipid remaining in liver, Average [5, 11] | other results
1 | CCCCCCCCCCN(C(=O)CCCN(C)C)C(CCCCCCCCC)CCCCCCC(F)(F)C(=O)OCCC(CCCCCC)CCCCCC (stereo not shown) [Compound 16, 3-hexylnonyl 9-(N-decyl-4-(dimethylamino)butanamido)-2,2-difluorooctadecanoate] | 11.11 nmol/g liver | 15.47 nmol/g liver | 10.91 nmol/g liver | 4.71 nmol/g liver | 1.33 nmol/g liver | 0.04 nmol/g liver | 95% | 0.10 | 76 nm | 4.39E+07 pg/g liver | 1155 ng hOTC/mg protein in liver | 4127 ng hOTC/mg protein in liver | 10316 ng hOTC/mg protein in liver | 6.32 nmol/g liver | 17.06 nmol/g liver | –
2 | CCCCCCCCCCC(CCCCCCC(=O)OCC(CCCCCC)CCCCCCCC)N(CCCCCCC(F)(F)C(=O)OCC(CCCCCC)CCCCCCCC)C(=O)CCCN(C)C (stereo not shown) [Compound 33] | 33.97 nmol/g liver | 98.57 nmol/g liver | 76.20 nmol/g liver | 86.57 nmol/g liver | 58.68 nmol/g liver | 6.22 nmol/g liver | – | – | – | – | 660 ng hOTC/mg protein in liver | 2954 ng hOTC/mg protein in liver | 11080 ng hOTC/mg protein in liver | – | – | –
3 | CCCCCCCCCCON(C(=O)CCCN(C)C)C(CCCCCCCCCC)CCCCCCC(=O)OCCC(CCCCC)CCCCC (stereo not shown) [Compound 43, 3-pentyloctyl 8-[N-(decyloxy)-4-(dimethylamino)butanamido]octadecanoate] | 22.97 nmol/g liver | 38.91 nmol/g liver | 28.99 nmol/g liver | 24.19 nmol/g liver | 13.50 nmol/g liver | 0.19 nmol/g liver | 99% | 0.05 | 73 nm | 1.04E+08 pg/g liver | 1247 ng hOTC/mg protein in liver | 5713 ng hOTC/mg protein in liver | 12887 ng hOTC/mg protein in liver | 25.97 nmol/g liver | 23.83 nmol/g liver | –
4 | CCCCCCCCCCC(CCCCCCC(=O)OCCC(CCCCC)CCCCC)N(CCCCCCCC(=O)OCCC(CCCCC)CCCCC)C(=O)CCCN(C)C (stereo not shown) [Compound 67] | 12.37 nmol/g liver | 21.11 nmol/g liver | 16.12 nmol/g liver | 10.82 nmol/g liver | 11.31 nmol/g liver | 0.72 nmol/g liver | – | – | – | – | – | – | – | – | 31.32 nmol/g liver | Luc Activity ([3]; Table 12): 1.31E+08 pg/g liver
5 | CCCCCCCCCCN(C(=O)CCCN(C)C)C(CCCCCCCCC)CCCCC(F)(F)C(=O)OC(CCCCCCC)CCCCCCC (stereo not shown) [Compound 101, Pentadecan-8-yl 7-(N-decyl-4-(dimethylamino)butanamido)-2,2-difluorohexadecanoate] | – | – | – | – | – | – | – | – | – | – | – | – | – | – | – | Final Product % EE [6]: 100%; Final Product PDI [6]: 0.10; Final Product Z-avg [6]: 70 nm; Parent ionizable lipid remaining in liver, Average [7]: 16.30 nmol/g liver; Parent ionizable lipid remaining in liver, Average ([8]; 0.25 h post-dose): 23.8 nmol/g liver; Parent ionizable lipid remaining in liver, Average ([8]; 1 h post-dose): 42.4 nmol/g liver; Parent ionizable lipid remaining in liver, Average ([8]; 3 h post-dose): 26.9 nmol/g liver; Parent ionizable lipid remaining in liver, Average ([8]; 6 h post-dose): 30.6 nmol/g liver; Parent ionizable lipid remaining in liver, Average ([8]; 24 h post-dose): 12.6 nmol/g liver; Parent ionizable lipid remaining in liver, Average ([8]; 168 h post-dose): 0.6 nmol/g liver; EGFP [9]: 2.25E+05 pg/g liver; EGFP expression ([10]; 0.3 mg/kg IV): 2.65e+07 pg EGFP/g liver; EGFP expression ([10]; 1 mg/kg IV): 1.04e+08 pg EGFP/g liver; EGFP expression ([10]; 3 mg/kg IV): 3.9e+08 pg EGFP/g liver
